The assay relates to production of TNF by monocytes activated with bacterial lipopolysaccharide (LPS). Description: Lipopolysaccharide-activated monocyte TNF production assay. In kind it is cell-based. To be noted: Homo sapiens; whole blood monocyte assay (LPS induced TNF release). The method in brief:
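Adherent human PBMC-derived monocytes preincubated 60 min with nine two-fold compound dilutions, then stimulated with E. coli K532 LPS (30 ng/mL in the added medium) for 4 h at 37 °C. Supernatant TNF measured by sandwich ELISA; IC50 is the compound concentration halving TNF production, from second-order polynomial fits.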
The compound `Cc1ccc(C(=O)NC2CC2)cc1-c1ccc2c(NC3CCOCC3)nncc2c1` [Example 329, N-cyclopropyl-4-methyl-3-[1-(tetrahydro-2H-pyran-4-ylamino)phthalazin-6-yl]benzamide] showed an IC50 of at most 5 µM.
To `Cc1ccc(C(=O)NC2CC2)cc1-c1ccc2c(N3CCNCC3)nncc2c1` [Example 165, N-cyclopropyl-4-methyl-3-(1-piperazin-1-ylphthalazin-6-yl)benzamide] belongs at most 5 µM; to `Cc1ccccc1-c1nncc2cc(Oc3cccc(C(=O)NC4CC4)c3)ccc12` [Example 352, N-cyclopropyl-3-{[1-(2-methylphenyl)phthalazin-6-yl]oxy}benzamide], at most 5 µM; to `Cc1ccc(C(N)=O)cc1-c1ccc2c(-c3ccc(Cl)cc3C)nncc2c1` [Example 232, 3-[1-(4-chloro-2-methylphenyl)phthalazin-6-yl]-4-methylbenzamide], at most 5 µM.
To `CC(=O)Nc1noc2c(-c3ccc4c(N5CCOC[C@@H]5C)nncc4c3)c(C)ccc12` [Example 403, N-(6-methyl-7-{1-[(3S)-3-methylmorpholin-4-yl]phthalazin-6-yl}-1,2-benzisoxazol-3-yl)acetamide] belongs at most 5 µM.
In the case of `Cc1ccc(C(=O)NC2CC2)cc1-c1cnc2c(N3CCOCC3)nncc2c1` [Example 276, N-cyclopropyl-4-methyl-3-(8-morpholin-4-ylpyrido[2,3-d]pyridazin-3-yl)benzamide], the IC50 was at most 5 µM.
To `CNS(=O)(=O)c1ccc(C)c(-c2ccc3c(NC(C)C)nncc3c2)c1` [Example 358, 3-[1-(isopropylamino)phthalazin-6-yl]-N,4-dimethylbenzenesulfonamide] belongs at most 5 µM; to `Cc1ccc(C(=O)NC2CC2)cc1-c1ccc2c(NC[C@H]3CCCO3)nncc2c1` [Example 297, N-cyclopropyl-4-methyl-3-(1-{[(2R)-tetrahydrofuran-2-ylmethyl]amino}phthalazin-6-yl)benzamide], at most 5 µM.
To `Cc1ccc(C(N)=O)cc1-c1ccc2c(-c3ccccc3C)nncc2c1` [Example 176, 4-methyl-3-[1-(2-methylphenyl)phthalazin-6-yl]benzamide] belongs at most 5 µM.
Consider `Cc1ccc(Oc2ccc3c(-c4ccccc4C)nncc3c2)cc1` [Example 332, 6-(4-methylphenoxy)-1-(2-methylphenyl)phthalazine], for which the IC50 is at most 5 µM.
`Cc1ccc(C(=O)NC2CC2)cc1-c1ccc2c(N3CCN4C(=O)OC[C@H]4C3)nncc2c1` [Example 99, 3-{1-[(8aR)-3-oxotetrahydro[1,3]oxazolo[3,4-a]pyrazin-7(1H)-yl]phthalazin-6-yl}-N-cyclopropyl-4-methylbenzamide] came in with an IC50 of at most 5 µM.
Compound `Cc1ccc(C(=O)NC2CC2)cc1-c1ccc2c(N3CCS(=O)(=O)CC3)nncc2c1` [Example 133, N-cyclopropyl-3-[1-(1,1-dioxidothiomorpholin-4-yl)phthalazin-6-yl]-4-methylbenzamide] yielded an IC50 of at most 5 µM.
Compound `CNc1noc2c(-c3ccc4c(N5CCOC[C@H]5C)nncc4c3)c(C)ccc12` [Example 373, N,6-dimethyl-7-{1-[(3R)-3-methylmorpholin-4-yl]phthalazin-6-yl}-1,2-benzisoxazol-3-amine] yielded an IC50 of at most 5 µM.
To `Cc1cc(F)ccc1Oc1nncc2cc(-c3cc(C(=O)NC4CC4)ccc3C)ccc12` [Example 305, N-cyclopropyl-3-[1-(4-fluoro-2-methylphenoxy)phthalazin-6-yl]-4-methylbenzamide] belongs at most 5 µM.
Compound `Cc1ccc(C(N)=O)cc1-c1ccc2c(N3CCNC(=O)C3)nncc2c1` [Example 116, 4-methyl-3-[1-(3-oxopiperazin-1-yl)phthalazin-6-yl]benzamide] returned an IC50 of at most 5 µM.
For the compound `Cc1cc(F)c(C(=O)NC2CC2)cc1-c1ccc2c(N3C[C@@H](C)OC[C@H]3C)nncc2c1` [Example 135, N-cyclopropyl-5-{1-[(2R,5R)-2,5-dimethylmorpholin-4-yl]phthalazin-6-yl}-2-fluoro-4-methylbenzamide], the IC50 is at most 5 µM.
To `Cc1ccc(C(=O)NC2CC2)cc1-c1ccc2c(N3CC4CC3CN4)nncc2c1` (stereo not drawn) [Example 20, 3-(1-(2,5-diaza-bicyclo[2.2.1]heptan-2-yl)phthalazin-6-yl)-N-cyclopropyl-4-methylbenzamide] belongs at most 5 µM; to `Cc1ccc(C(=O)NC2CC2)cc1-c1ccc2c(N3C[C@@H](C)O[C@@H](C)C3)nncc2c1` [Example 142, N-cyclopropyl-3-{1-[(2R,6S)-2,6-dimethylmorpholin-4-yl]phthalazin-6-yl}-4-methylbenzamide], at most 5 µM.
To `Cc1ccc(C(N)=O)cc1-c1ccc2c(OCC(C)(C)C)nncc2c1` [Example 315, 4-methyl-3-[1-(neopentyloxy)phthalazin-6-yl]benzamide] belongs at most 5 µM.
For `CC[C@H](C)Oc1nncc2cc(-c3cc(C(=O)NC4CC4)ccc3C)ccc12` [Example 302, N-cyclopropyl-4-methyl-3-(1-{[(1S)-1-methylpropyl]oxy}phthalazin-6-yl)benzamide], the IC50 was at most 5 µM.
Turning to `Cc1cc(F)ccc1-c1nncc2cc(Oc3ccc(F)cc3)ccc12` [Example 341, 1-(4-fluoro-2-methylphenyl)-6-(4-fluorophenoxy)phthalazine], the IC50 is at most 5 µM.
`Cc1ccc(C(=O)NC2CC2)cc1-c1ccc2c(N3CCN[C@H](C)C3)nncc2c1` [Example 140, N-cyclopropyl-4-methyl-3-{1-[(3R)-3-methylpiperazin-1-yl]phthalazin-6-yl}benzamide]: the IC50 was at most 5 µM.
To `CC[C@H](C)Nc1nncc2cc(-c3c(C)ccc4c(NC)noc34)ccc12` [Example 365, 6-[6-methyl-3-(methylamino)-1,2-benzisoxazol-7-yl]-N-[(1S)-1-methylpropyl]phthalazin-1-amine] belongs at most 5 µM; to `COc1ccc(-c2nncc3cc(-c4cc(C(N)=O)ccc4C)ccc23)c(Cl)c1` [Example 229, 3-[1-(2-chloro-4-methoxyphenyl)phthalazin-6-yl]-4-methylbenzamide], at most 5 µM.
`Cc1ccc(C(=O)NC2CC2)cc1-c1ccc2c(N3CCNC[C@@H]3C)nncc2c1` [Example 63, N-cyclopropyl-4-methyl-3-(1-((S)-2-methylpiperazin-1-yl)phthalazin-6-yl)benzamide]: the IC50 was at most 5 µM.
On to `CCOC(=O)c1ccc(C)c(-c2ccc3c(NC(C)C)nncc3c2)c1` [Example 138, ethyl 3-[1-(isopropylamino)phthalazin-6-yl]-4-methylbenzoate], for which the IC50 is at most 5 µM.
In the case of `CS(=O)(=O)N1CCN(c2nncc3cc(Oc4ccc(F)cc4)ccc23)CC1` [Example 353, 6-(4-fluorophenoxy)-1-[4-(methylsulfonyl)piperazin-1-yl]phthalazine], the IC50 is at most 5 µM.
As for `Cc1ccc(C(=O)NC2CC2)cc1-c1ccc2c(N3CCN4C(=O)OC[C@@H]4C3)nncc2c1` [Example 101, 3-{1-[(8aS)-3-oxotetrahydro[1,3]oxazolo[3,4-a]pyrazin-7(1H)-yl]phthalazin-6-yl}-N-cyclopropyl-4-methylbenzamide], the IC50 was at most 5 µM.
For `Cc1ccc(C(N)=O)cc1-c1ccc2c(N3C[C@H](C)N(CC(F)(F)F)C[C@H]3C)nncc2c1` [Example 368, 3-{1-[(2R,5S)-2,5-dimethyl-4-(2,2,2-trifluoroethyl)piperazin-1-yl]phthalazin-6-yl}-4-methylbenzamide], the IC50 is at most 5 µM.
To `C[C@H]1COCCN1c1nncc2cc(-c3c(Cl)ccc4c(NCC(F)(F)F)noc34)ccc12` [Example 400, 6-chloro-7-{1-[(3S)-3-methylmorpholin-4-yl]phthalazin-6-yl}-N-(2,2,2-trifluoroethyl)-1,2-benzisoxazol-3-amine] belongs at most 5 µM; to `CC(=O)N1CCN(c2nncc3cc(-c4c(C)ccc5c(NC6CC6)noc45)ccc23)[C@@H](C)C1` [Example 390, 7-{1-[(2S)-4-acetyl-2-methylpiperazin-1-yl]phthalazin-6-yl}-N-cyclopropyl-6-methyl-1,2-benzisoxazol-3-amine], at most 5 µM; to `Cc1ccc(C(N)=O)cc1-c1ccc2c(N3CCN4C(=O)CC[C@H]4C3)nncc2c1` [Example 285, 3-{1-[(8aS)-6-oxohexahydropyrrolo[1,2-a]pyrazin-2(1H)-yl]phthalazin-6-yl}-4-methylbenzamide], at most 5 µM.
`Cc1ccc(C(=O)NC2CC2)cc1-c1ccc2c(N3CCC[C@@H]4CCCC[C@@H]43)nncc2c1` [Example 154, 3-{1-[(4aS,8aS)-octahydroquinolin-1(2H)-yl]phthalazin-6-yl}-N-cyclopropyl-4-methylbenzamide] showed an IC50 of at most 5 µM.
To `Fc1ccc(Oc2ccc3c(N4CCOCC4)nncc3c2)cc1` [Example 336, 6-(4-fluorophenoxy)-1-morpholin-4-ylphthalazine] belongs at most 5 µM.
To `O=C(NC1CC1)c1cccc(-c2ccc3c(N4CCOCC4)nncc3c2)c1` [Example 69, N-Cyclopropyl-3-(1-morpholin-4-ylphthalazin-6-yl)benzamide] belongs at most 5 µM; to `Cc1ccc(C(=O)Nc2ccon2)cc1-c1ccc2c(N3CCOCC3)nncc2c1` [Example 108, N-(Isoxazol-3-yl)-4-methyl-3-(1-morpholinophthalazin-6-yl)benzamide], at most 5 µM.
`Cc1ccc(C(N)=O)cc1-c1ccc2c(-c3ccccc3C(F)(F)F)nncc2c1` [Example 220, 4-methyl-3-{1-[2-(trifluoromethyl)phenyl]phthalazin-6-yl}benzamide] registered an IC50 of at most 5 µM.
As for `CC(=O)N1CCN(c2nncc3cc(-c4cc(C(N)=O)ccc4C)ccc23)[C@@H](C)C1` [Example 383, 3-{1-[(2S)-4-acetyl-2-methylpiperazin-1-yl]phthalazin-6-yl}-4-methylbenzamide], the IC50 was at most 5 µM.
`Cc1ccc(C(N)=O)cc1-c1ccc2c(-c3ccc(OC(C)C)cc3C)nncc2c1` [Example 227, 3-[1-(4-isopropoxy-2-methylphenyl)phthalazin-6-yl]-4-methylbenzamide] gave an IC50 of at most 5 µM.

These data come from patent publication US7759337B2, “Phthalazine compounds and methods of use” (Amgen Inc., priority 2005, dated 2010).
